The text below walks through data of publication PMC12596218 (Journal of Lipid Research, 2025).

As a reminder, the IC50 is the concentration at which inhibition is half-maximal. Higher therefore signals weaker potency in that assay.

In one data set the target is T1, OATP2B1 (Homo sapiens, UniProt O94956).
T1 construct: stably transfected with the full open reading frames of human NTCP, ASBT, SOAT, OATP1B1, OATP1B3, OATP2B1, and murine Asbt (mAsbt); expressed in transfected cells; host or cells: HEK293, stably transfected (OATP2B1-HEK), tetracycline-induced
T1 sequence (O94956 1-709): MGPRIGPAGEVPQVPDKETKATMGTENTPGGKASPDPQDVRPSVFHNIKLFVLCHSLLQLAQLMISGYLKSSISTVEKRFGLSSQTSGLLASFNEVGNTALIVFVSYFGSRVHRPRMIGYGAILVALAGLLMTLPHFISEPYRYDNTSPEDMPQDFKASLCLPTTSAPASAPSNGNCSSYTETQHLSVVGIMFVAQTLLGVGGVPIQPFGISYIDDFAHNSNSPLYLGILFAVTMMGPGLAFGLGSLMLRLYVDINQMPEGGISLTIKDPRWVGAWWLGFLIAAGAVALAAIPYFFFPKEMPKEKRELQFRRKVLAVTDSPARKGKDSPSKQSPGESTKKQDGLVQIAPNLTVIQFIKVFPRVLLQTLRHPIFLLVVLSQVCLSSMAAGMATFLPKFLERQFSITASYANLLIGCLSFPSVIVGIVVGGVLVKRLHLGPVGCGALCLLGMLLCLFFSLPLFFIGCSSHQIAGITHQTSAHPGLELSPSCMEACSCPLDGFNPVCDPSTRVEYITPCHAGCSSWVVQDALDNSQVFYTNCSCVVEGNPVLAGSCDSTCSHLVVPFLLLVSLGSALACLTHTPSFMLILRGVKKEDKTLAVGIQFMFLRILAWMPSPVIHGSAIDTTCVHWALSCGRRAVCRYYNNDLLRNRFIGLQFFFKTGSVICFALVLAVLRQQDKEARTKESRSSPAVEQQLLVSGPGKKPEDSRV
The data set can be described thus: [3H]E1S transport inhibition assay in OATP2B1-HEK293 cells. It counts as cell-based. Particulars: 200 nM [3H]E1S, 10 min; two independent experiments. From the text:
(§1) Human embryonic kidney HEK293 cells, stably transfected with the full open reading frames of human NTCP, ASBT, SOAT, OATP1B1, OATP1B3, OATP2B1, and murine Asbt (mAsbt) were used as reported ([18], [20], [21], [22], [23]). The NTCP, ASBT, and mAsbt constructs were C-terminally tagged with the FLAG epitope, and the SOAT construct was C-terminally tagged with green fluorescent protein. Non-transfected Flp-In HEK293 cells (Thermo Fisher Scientific) served as the control. All cell lines were maintained at 37°C, 5% CO2 and 95% humidity in DMEM/F-12 medium (Thermo Fisher Scientific) supplemented with 10% fetal calf serum (Sigma-Aldrich), 4 mM L-glutamine (PAA) and penicillin/streptomycin (PAA). Expression of the respective carrier protein was induced by tetracycline treatment at 1 μg/ml (Carl Roth GmbH + Co. KG).
(§2) Cells were seeded onto poly-L-lysine-coated 96-well plates, induced with 1 μg/ml tetracycline, and grown to confluence over 72 h at 37°C. Then, cells were washed with tempered (37°C) phosphate-buffered saline (PBS, containing 137.0 mM NaCl, 2.7 mM KCl, 1.5 mM KH2PO4, and 7.3 mM Na2HPO4, at pH 7.4) and preincubated with 80 μl sodium transport buffer (STB, containing 142.9 mM NaCl, 4.7 mM KCl, 1.2 mM MgSO4, 1.2 mM KH2PO4, 1.8 mM CaCl2, and 20.0 mM HEPES, at pH 7.4) for 5 min at 37°C. For inhibition studies, the medium was replaced by 80 μl STB containing the respective inhibitor or solvent alone and cells were further incubated for 5 min at 37°C. Transport experiments were started by adding 20 μl of a 5-fold concentrated substrate solution (solved in STB). For transport experiments under sodium-free conditions the same buffer composition was used as for STB, but sodium chloride was substituted with equimolar concentrations of choline chloride as previously reported ([20], [24]). Transport experiments were stopped by washing twice with ice-cold PBS and the plates were kept cool on ice until adding the lysis buffer [1% sodium dodecyl sulfate (SDS) and 1 N NaOH]. Then, the cell-associated radioactivity of the respective tritium-labeled substrate or ligand was quantified by liquid scintillation counting using MicroScint-20 scintillation cocktail (Revvity) in a Packard Microplate Scintillation Counter TopCount NXT (Packard Instrument Company). For IC50 transport inhibition measurements, the mean uptake values measured in non-carrier-expressing HEK293 control cells were defined as 0% uptake control and were subtracted from all other values. Values from cells without inhibitor and solvent alone were set to 100%. Finally, all net transport data were expressed as uptake or binding as % of control. All transport or inhibition graphs were generated with GraphPad Prism 6 (GraphPad). Determination of half maximal inhibitory concentrations (IC50) was done by nonlinear regression analysis using the equation log (inhibitor) versus response—variable slope settings. All data points of the IC50 curves represent means ± SD of quadruplicate determinations. For Km measurements, BS uptake in the absence of sodium was regarded as carrier-independent unspecific uptake and was subtracted from the transport rates in the presence of sodium to obtain carrier-specific uptake rates (indicated as dashed lines). From the specific uptake rates, Michaelis Menten Km values were calculated by non-linear regression analysis.

A further data set has as its target T2, ASBT (Homo sapiens, UniProt Q12908).
T2 construct: stably transfected with the full open reading frames of human NTCP, ASBT, SOAT, OATP1B1, OATP1B3, OATP2B1, and murine Asbt (mAsbt); expressed in transfected cells; host or cells: HEK293 (Flp-In), stably transfected, tetracycline-induced
T2 sequence (Q12908 1-348): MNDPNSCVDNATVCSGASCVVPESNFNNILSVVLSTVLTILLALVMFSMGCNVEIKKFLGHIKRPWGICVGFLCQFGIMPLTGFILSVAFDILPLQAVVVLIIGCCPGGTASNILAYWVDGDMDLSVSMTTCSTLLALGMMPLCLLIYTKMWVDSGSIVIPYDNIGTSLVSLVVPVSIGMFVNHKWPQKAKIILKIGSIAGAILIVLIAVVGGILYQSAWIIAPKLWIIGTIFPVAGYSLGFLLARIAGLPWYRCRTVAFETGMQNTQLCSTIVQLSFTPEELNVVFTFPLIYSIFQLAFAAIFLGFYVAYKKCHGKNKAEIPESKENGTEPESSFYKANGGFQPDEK
The data set can be described thus: [3H]TC transport and inhibition assay in ASBT-HEK293 cells. It counts as cell-based. The conditions noted are these: for IC50: 1 μM [3H]TC, 10 min, ASBT-HEK293, two independent experiments.
Text: as §1, §2

For data set [1] the following is noted: cited from earlier work.

Several values for one entry are separate records, joined by “and”; a condition that tells them apart may be missing. Equal entries are not always repeated. Where two headings read alike, the source gives them in different places.

As for `CCCCC1(CCCC)CS(=O)(=O)c2ccc(N(C)C)cc2[C@@H](c2ccc(OCCCC[N+]34CCN(CC3)CC4)cc2)[C@H]1O` [SC-435], the IC50 against OATP2B1 was > 10 µM and 40.3 µM and 36.5 µM; against ASBT, 0.2 µM and 0.23 µM.
In the case of `CCCCC1(CCCC)CN(c2ccccc2)c2cc(SC)c(OCC(=O)N[C@@H](C(=O)NCC(=O)O)c3ccccc3)cc2S(=O)(=O)C1` [elobixibat], the IC50 is 3.9 µM and 3.6 µM against OATP2B1; 0.11 µM and 0.23 µM at ASBT. Besides, the “Cmax, clinical drug concentration” value in data set [1] (15 mg cohort study, ref PMDA Goofice report) is on record as “Elobixibat clinical drug concentration in the 15 mg cohort study: Cmax = 0.39 ng/ml”. Besides, the “IC50 ratio for ASBT versus NTCP inhibition” value at ASBT (measured in this study) was 0.002-0.006.
Turning to `CCCC[C@]1(CC)CS(=O)(=O)c2cc(CNC(CC(=O)O)CC(=O)O)c(OC)cc2[C@@H](c2ccccc2)N1` [linerixibat], the IC50 was > 10 µM and 26.1 µM and 22.5 µM against OATP2B1; 0.18 µM and 0.25 µM at ASBT. In addition, at ASBT (500 μM [3H]TC), the “Transport inhibition at highest substrate concentration” value is on record as “full transport inhibition”. The “Slope of IC50 values versus TC substrate concentration” value on ASBT ([3H]TC 0.3-500 μM, linear regression) was 4.0 × 10^−4.
`CCCCC1(CCCC)CS(=O)(=O)c2ccc(N(C)C)cc2[C@@H](c2ccc(OCc3ccc(C[N+]45CCN(CC4)CC5)cc3)cc2)[C@H]1O` [maralixibat]: the IC50 against OATP2B1 is 7.5 µM and 6 µM. Also, the “Cmax, clinical drug concentration” value in data set [1] (45 mg cohort study, fasted, ref EMA Livmarli assessment report variation) was 1.62 ng/mL; in data set [1] (45 mg cohort study, fed, ref EMA Livmarli assessment report variation), 0.57 ng/mL.
For the compound `CCCCC1(CCCC)CN(c2ccccc2)c2cc(SC)c(OCC(=O)N[C@@H](C(=O)N[C@@H](CC)C(=O)O)c3ccc(O)cc3)cc2S(=O)(=O)N1` [odevixibat], the IC50 against OATP2B1 was 5.1 µM and 4 µM; at ASBT it was 0.68 µM and 0.99 µM. Also, the “Cmax, clinical drug concentration” value in data set [1] (120 μg/kg/day cohort study, ref FDA (URL EMA Bylvay product information)) is “Odevixibat clinical drug concentration in the 120 μg/kg/day cohort study: Cmax = 0.62 ng/ml”.
